The source of these data is PMC5865651, “Novel inhibitor candidates of TRPV2 prevent damage of dystrophic myocytes and ameliorate against dilated cardiomyopathy in a hamster model” (Oncotarget, 2018).

As usually defined, the IC50 is the midpoint of a concentration-inhibition curve.

Experiment [1] has as its system TRPV2. Also on record: method as in PMID 17673572. To be noted: cited from earlier work.
The target of a further experiment is T1, mouse TRPV2 (mTRPV2) (Mus musculus, UniProt Q9WTR1).
T1 construct: expressed in transfected cells
T1 sequence (Q9WTR1 1-756): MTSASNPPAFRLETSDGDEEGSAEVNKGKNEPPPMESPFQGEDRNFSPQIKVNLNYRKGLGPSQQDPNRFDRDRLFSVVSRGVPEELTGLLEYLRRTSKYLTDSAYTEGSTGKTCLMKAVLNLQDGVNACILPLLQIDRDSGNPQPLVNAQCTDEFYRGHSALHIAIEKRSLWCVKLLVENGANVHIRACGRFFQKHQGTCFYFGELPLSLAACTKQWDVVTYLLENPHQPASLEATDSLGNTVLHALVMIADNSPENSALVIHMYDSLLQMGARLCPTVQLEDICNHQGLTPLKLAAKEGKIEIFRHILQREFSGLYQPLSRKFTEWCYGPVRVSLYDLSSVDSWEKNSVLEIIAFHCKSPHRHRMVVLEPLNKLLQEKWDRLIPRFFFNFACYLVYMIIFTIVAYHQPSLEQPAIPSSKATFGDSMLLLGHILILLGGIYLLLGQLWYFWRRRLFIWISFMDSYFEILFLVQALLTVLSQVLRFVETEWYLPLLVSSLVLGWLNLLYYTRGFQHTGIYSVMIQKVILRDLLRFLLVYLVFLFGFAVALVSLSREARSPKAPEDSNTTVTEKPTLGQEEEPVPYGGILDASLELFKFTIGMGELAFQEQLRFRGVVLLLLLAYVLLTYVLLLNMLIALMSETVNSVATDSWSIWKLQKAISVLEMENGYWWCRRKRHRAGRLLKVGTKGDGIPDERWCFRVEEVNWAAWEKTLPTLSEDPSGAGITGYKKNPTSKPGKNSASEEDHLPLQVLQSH
The experiment can be described thus: 2-APB-induced increase in [Ca2+]i in HEK293 cells expressing mTRPV2 (fura-2, microplate reader / imaging). The format is cell-based. To be noted: for inhibition of the 2-APB-induced increase in [Ca2+]i / IC50: HEK293 cells expressing mTRPV2, 2-APB 0.3 mM, CaCl2 5 mM, pH 6.5; for inhibition of the 2-APB-induced increase in [Ca2+]i: concentrations up to 100 μM; for IC50: read-out: IC50 for the 2-APB-induced increase in [Ca2+]i (Ca2+ response); for Ca2+ responses elicited by TRPV2 agonists (initial assessment): cell-based assay, before optimisation of conditions. On the procedure:
HEK293 cells expressing mouse TRPV2 (mTRPV2) and non-transfected HEK293 cells were loaded with fura-2-AM and placed in low CaCl2 medium (0.5 mM).
For the drug screening, we designed a method involving measurement of the Ca^2+ response using a 96-well high-throughput plate-reader. Cells were placed in low CaCl2 (0.5 mM) medium, which was replaced with high CaCl2 medium (5 mM) with or without the TRPV agonist 2-APB and adjusted to various pH values.
(§1) [Ca^2+]i was measured by a ratiometric fluorescence method as previously described. Briefly, HEK293 cells were loaded with 4 μM fura-2-AM for 30 min at 37° C and maintained in balanced salt solution (BSS) (146 mM NaCl, 4 mM KCl, 2 mM MgCl2, 0.5 mM CaCl2, 10 mM glucose, 0.1% bovine serum albumin, and 10 mM HEPES/Tris, pH 7.4). Fura-2-AM fluorescence was measured using an Aquacosmos fluorescence image processor (Hamamatsu Photonics, Hamamatsu, Japan). The time-course data are presented as the ratio of fluorescence at an excitation wavelength of 340 nm to that at 380 nm. The increase in the fluorescence ratio induced by the TRPV2 agonist 2-APB or high extracellular Ca^2+ (ΔR) was normalized to the initial ratio (R0) before stimulation. The fluorescence relative ratio (ΔR/R0) was plotted as the summary data in the fluorescence imaging analysis.
For screening, cells were plated in 96-well plates and the fura-2-AM fluorescence ratio at excitation wavelengths of 340 nm and 380 nm was monitored using a GENios Pro microplate reader (Tecan, Research Triangle Park, NC, USA) or POLARstar Omega (BMG Labtech, Germany). Cells were stimulated in BSS containing 5 mM CaCl2. […] All Ca^2+ measurements were carried out at room temperature. […] For simplicity, the results are presented as normalized values (% maximum) from the microplate reader experiment.

The next experiment has as its system J2N-k myocytes. The experiment can be described thus: Stretch-induced CK release from J2N-k myocytes. The format is cell-based, hamster. To be noted: 500 μM, 30 min pretreatment, cyclic stretch 20% elongation 1 h. On the procedure:
(§2) Creatine phosphokinase (CK) activity in the medium was determined using an in vitro colorimetric assay kit (CK Test Kit; Wako Pure Chemical Industries, Ltd., Osaka, Japan) according to the manufacturer's protocol The cTN-I level in the serum was measured, while quantitative immunoblotting and immunocytochemistry were performed as previously described. Protein concentration was measured using the bicinchoninic acid assay (Pierce Chemical Co., Rockford, IL, USA) with bovine serum albumin as the standard. All histochemical and physiological analyses were performed by investigators blinded to the drug treatments. Unless otherwise stated, results are presented as the mean ± SD of at least 5 determinations. The unpaired Student's t-test and one-way ANOVA followed by Dunnett's test were used to analyse the data. Values of P < 0.05 (indicated as asterisks in the figures) were considered statistically significant. All cellular measurements were repeated at least 5 times. Representative data are shown.

Experiment [2] concerns cardiomyopathic J2N-k hamsters. In words: Cardiomyopathy in J2N-k hamsters in vivo (echocardiography, serum cTN-I, Masson's trichrome fibrosis). To be noted: 300 mg/kg/day mixed with feed, 3 weeks. Further details: species or system hamster. On the procedure: Male δ-SG-deficient cardiomyopathic J2N-k and age-matched wild-type J2N-n hamsters (9 weeks old) were purchased from Japan SLC, Inc. (Shizuoka, Japan). Tranilast was ingested mixed with feed (300 mg/kg/day) as described previously, whereas other drugs (Figure 1) were administered orally in the drinking water at doses of 30 mg/kg (except lumin) per day for 3 weeks. In case of lumin, we first performed dose-dependent experiment at dose of 1,10 and100 mg/kg per day for 3 weeks, in order to determine the effective dose. […] After drug treatment, serum cardiac troponin (cTN)-I was measured and echocardiography analysis was performed. Histochemistry of cardiac muscles was performed as previously described. All animal experiments were performed according to the Guidelines for Animal Experimentation of the National Cerebral and Cardiovascular Center Research Institute.
Ventricles were fixed in phosphate-buffered saline containing 10% formalin and embedded in paraffin. Serial sections were cut at a thickness of 5 μm and stained with Masson's trichrome stain for morphological analysis. Sections were viewed under a BX41 light microscope (Olympus, Tokyo, Japan). Images were acquired with an FX380 digital camera (Olympus) and analysed using an FLVFS-LS imaging system (Flovel, Tokyo, Japan).
Fibrosis was assessed by measuring Masson's trichrome-positive areas. Briefly, colour images were converted to binary form by setting the threshold value so as to detect only blue-stained fibrotic areas, which were summed and reported as a percentage of the total.
Cardiac function was evaluated by echocardiography using a Sonos5500 ultrasound system (Hewlett-Packard, Palo Alto, CA, USA) with a 12-MHz transducer and M-mode imaging. The animals were sedated with tribromoethanol (350 mg/kg by intraperitoneal injection) during the process.
as §2

The target of the next experiment is T2, mTRPV2 channel (Mus musculus, UniProt Q9WTR1).
T2 construct: expressed in transfected cells
T2 sequence (Q9WTR1 1-756): T1 sequence (Q9WTR1 1-756)
In words: Whole-cell patch clamp of 2-APB-evoked mTRPV2 current in HEK293 cells. To be noted: tranilast 100 μM; 200 μM 2-APB; data not shown. The format is cell-based. On the procedure:
The fluorescence ratio was measured by a microplate reader and normalized by the maximal value. Data are shown as mean ± SD (n = 5). […] The current values at −100 mV measured by an every-2-second ramp protocol were plotted. […] The current waveforms of the control cells and the cells 11 minutes after application of 15 μM lumin were superimposed. The L-type Ca^2+ channel currents were elicited by depolarizing pulses of 0 mV for 200 milliseconds from −80 mV.
TRPV2 currents were recorded under voltage-clamp conditions by the whole-cell patch-clamp technique. Patch pipettes (2–5 MΩ) were filled with an intracellular solution containing 110 mM K-aspartate, 30 mM KCl, 10 mM NaCl, 1 mM MgCl2, 10 mM BAPTA, 10 mM HEPES, and 3 mM MgATP (adjusted to pH 7.2 with KOH). The extracellular solution contained 145 mM NaCl, 5 mM KCl, 1.5 mM MgCl2, 1 mM EGTA, 10 mM HEPES, and 10 mM glucose (pH was adjusted to 6.5 with NaOH). Because TRPV2 was reported to desensitize in the presence of extracellular Ca^2+ [41], we used nominally Ca^2+-free medium containing 1 mM EGTA to prevent desensitization. In the experiments confirming the pH dependence of the response, the pH was adjusted to 7.4. In the whole-cell recordings, the membrane potential of the cell was held at −60 mV, while voltage ramps of 400 ms from −100 mV to +60 mV were applied every 2 seconds. Currents through the electrode were recorded at 5 kHz and filtered at 2 kHz by an Axopatch 200B amplifier (Molecular Devices, LLC, Sunnyvale, CA, USA). The junctional potential was −11.7 mV.
A general note: In patch-clamp work, channel activity is measured electrically.

Experiment [3] deals with TRPV2. Further details: method as in PMID 21147993. Particulars: TRPV2-transfected HEK293 cells; cited from earlier work.
The next experiment deals with T3, hTRPC1 (Homo sapiens, UniProt P48995).
T3 construct: expressed in transfected cells; host or cells: HEK293 cells
In words: Store-operated Ca2+ entry after thapsigargin in hTRPC1-transfected HEK293 cells. The format is cell-based. To be noted: hTRPC1-transfected HEK293 cells; thapsigargin; compound 100 μM. On the procedure:
Figure 4 Effects of inhibitor compounds on the Ca^2+ response of cells expressing hTRPV1, hTRPV2, or hTRPC1 (A) Effect of compounds on CaCl2 (5 mM)-induced peak fluorescence ratio in non-transfected (nt) or hTRPV2-transfected CHO cells. The extracellular Ca^2+-dependent increase in the ratio of fura-2 fluorescence intensity at 340/380 nm (ΔR, 2 min after addition of chemicals) was plotted as ΔR/R0 after normalising to the initial fluorescence ratio (R0). […] Solid bar, no inhibitor. (B) Effect of compounds on 2-APB (1 mM)/high extracellular CaCl2-induced peak fluorescence ratio in nt or hTRPV1-transfected HEK293 cells. […] (C) Effect of compounds on store-operated Ca^2+ entry in nt or hTRPC1-transfected HEK293 cells. Cells were treated with the endoplasmic reticulum Ca^2+ pump inhibitor thapsigargin and exposed to CaCl2 and the indicated compounds. ΔR was measured 2 min after the addition of CaCl2. […] Data are shown as mean ± SD (n = 5).
as §1, with “Briefly, HEK293 cells were loaded with 4 μM fura-2-AM for 30 min at 37° C and maintained in balanced salt solution (BSS) (146 mM NaCl, 4 mM KCl, 2 mM MgCl2, 0.5 mM CaCl2, 10 mM glucose, 0.1% bovine serum albumin, and 10 mM HEPES/Tris, pH 7.4).” left out

The structures appear in SMILES notation. Where only a bound is given, the exact number is not on record here.

T3 sequence (P48995 whole entry): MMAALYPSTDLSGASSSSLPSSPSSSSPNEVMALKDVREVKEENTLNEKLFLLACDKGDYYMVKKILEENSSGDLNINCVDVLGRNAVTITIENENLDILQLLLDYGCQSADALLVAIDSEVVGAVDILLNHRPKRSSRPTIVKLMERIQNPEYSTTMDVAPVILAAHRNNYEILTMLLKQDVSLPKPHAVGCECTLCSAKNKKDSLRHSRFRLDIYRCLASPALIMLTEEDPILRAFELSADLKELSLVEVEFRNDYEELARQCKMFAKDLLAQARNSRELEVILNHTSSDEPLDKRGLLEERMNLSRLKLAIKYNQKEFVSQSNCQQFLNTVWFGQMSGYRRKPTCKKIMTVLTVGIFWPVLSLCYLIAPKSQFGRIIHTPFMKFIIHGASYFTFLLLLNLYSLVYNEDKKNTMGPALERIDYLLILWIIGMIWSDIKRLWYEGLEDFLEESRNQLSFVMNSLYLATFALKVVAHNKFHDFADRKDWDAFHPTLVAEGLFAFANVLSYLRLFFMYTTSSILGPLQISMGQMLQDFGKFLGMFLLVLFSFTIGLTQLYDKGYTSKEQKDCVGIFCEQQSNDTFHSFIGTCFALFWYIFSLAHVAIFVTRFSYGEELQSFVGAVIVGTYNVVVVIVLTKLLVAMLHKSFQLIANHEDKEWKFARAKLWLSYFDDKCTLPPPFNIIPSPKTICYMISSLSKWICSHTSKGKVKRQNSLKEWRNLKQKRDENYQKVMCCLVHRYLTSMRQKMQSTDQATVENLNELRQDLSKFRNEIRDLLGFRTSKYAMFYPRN

Turning to `CC[N+](CC)(CC)CC` [tetraethylammonium], the “effective doses for inhibition of TRPV2 activation” value (“effective doses for inhibition” for short) in the experiment with TRPV2 [1] was 100 to 1000 µM.

Regarding `[H]/N=C(/N)N[C@H]1[C@H](O)[C@@H](O)[C@H](O[C@@H]2O[C@@H](C)[C@](O)(C=O)[C@H]2O[C@@H]2O[C@@H](CO)[C@H](O)[C@@H](O)[C@@H]2NC)[C@@H](N/C(N)=N\[H])[C@@H]1O` [streptomycin], the “inhibition of the 2-APB-induced increase in [Ca2+]i” value against mouse TRPV2 (mTRPV2) is “did not inhibit”. For `COc1ccc(/C=C/C(=O)Nc2ccccc2C(=O)O)cc1OC` [tranilast, N-[3,4-dimethoxycinnamonyl]-anthranilic acid], on mouse TRPV2 (mTRPV2), the 50% inhibitory concentration (IC50) is no less than 10 µM. Besides, the “reduction of stretch-induced CK release” value in the experiment with J2N-k myocytes is on record as “up to 70%”. Moreover, in experiment [2], the “effect on fibrosis (Masson's trichrome)” value is listed as “prevented fibrosis”, the “effect on fractional shortening (FS)” value is “prevented”, the “effect on left ventricular end-diastolic dimension (LVDd)” value was “small effect” and the “effect on left ventricular end-systolic dimension (LVDs)” value is on record as “prevented the increase”. Also, the “effect on serum level of cTN-I” value in experiment [2] is on record as “reduced”. Besides, at mTRPV2 channel, the “effect on TRPV2 channel activity” value is given as “did not inhibit”. Moreover, the “effect on pressure-induced inward current” value in the experiment on TRPV2 [3] was “blocked”. For the compound `CC(C)c1ccc(C(=O)NC(=N)N)cc1S(C)(=O)=O` [cariporide], the “inhibition of the 2-APB-induced increase in [Ca2+]i” value against mouse TRPV2 (mTRPV2) is reported as “did not inhibit”. In the case of `Nc1ccncc1` [4-amino-pyridine], in the experiment with TRPV2 [1], the “effective doses for inhibition” value is 100 to 1000 µM.

`COc1ccc(CCCOC(Cn2ccnc2)c2ccc(OC)cc2)cc1` (stereo not drawn) [SKF96365, 1-[β-[3-(4-methoxyphenyl)propoxy]-4-methoxyphenethyl]-1H-imidazole]: the IC50 on mouse TRPV2 (mTRPV2) was no less than 10 µM. Besides, the “effect on store-operated increase in [Ca2+]i” value at hTRPC1 is “strongly inhibited”. For the compound `FC(F)(F)c1ccccc1-n1ccnc1` [1-(2-(trifluoromethyl)phenyl)imidazole], the “effective doses for inhibition” value in the experiment on TRPV2 [1] was 100 to 1000 µM. Regarding `COc1ccc([C@@H]2Sc3ccccc3N(CCN(C)C)C(=O)[C@@H]2OC(C)=O)cc1` [diltiazem], the “inhibition of the 2-APB-induced increase in [Ca2+]i” value at mouse TRPV2 (mTRPV2) was “did not inhibit”. Take `C=C(C)[C@@H]1CCC(C)=C[C@H]1c1c(O)cc(CCCCC)cc1O` [cannabidiol]: on mouse TRPV2 (mTRPV2), the “Ca2+ responses elicited by TRPV2 agonists (initial assessment)” value is “too small”. Turning to `CCCN(CCC)S(=O)(=O)c1ccc(C(=O)O)cc1` [probenecid], the “Ca2+ responses elicited by TRPV2 agonists (initial assessment)” value at mouse TRPV2 (mTRPV2) is on record as “too small”.
